Values of other authors, collected in paper PMC11667226 (Theranostics, 2025).

Tested on: EGFR
Settings: microscopic histopathology as reference; ref Van Keulen et al. [36]; cited from earlier work
Excerpt: Van Keulen et al. reported a 95% sensitiv ...

Which results are given for “panitumumab-IRDye800: antibody-based optical imaging agent targeting EGFR”?
Sensitivity for detection of inadequate margins (< 5mm): 95%; Specificity for detection of inadequate margins (< 5mm): 89%
